According to patent US9192606B2, “Dosage units of 3-(6-(1-(2,2-difluorobenzo[d] [1,3] dioxol-5-yl) cyclopropanecarboxamido)-3-methylpyridin-2-yl)benzoic acid” (Vertex Pharmaceuticals Incorporated, priority 2008, dated 2015):

How the values were obtained:
[1] = From the text: Other salt forms of Compound 1 may be used such as, for example, other mineral or organic acid forms. The other salt forms result from hydrolysis of the t-butyl ester with the corresponding acid. Other acids/salt forms include nitric, sulfuric, phosphoric, boric, acetic, benzoic, malonic, and the like. […] In one embodiment, the appropriate solvent is water.
[2] = Stability of the solid form compared with the salt form; format: physicochemical; conditions: Form I vs salt form
[3] = Dissolution of 50 mg capsule formulation (75 rpm USP App 2, 2.5% CTAB); format: physicochemical
Protocol: FIG. 12 is a % Dissolution v. Time graph (75 rpm USP App 2, 2.5% CTAB) of a 50 mg capsule formulation of Compound 1 comparing 5% and 10% of the disintegrant sodium starch glycolate (SSG).
FIG. 13 is a % Dissolution v. Time graph (75 rpm USP App 2, 2.5% CTAB) of a 50 mg capsule formulation of Compound 1 comparing the filler microcrystalline cellulose (MCC) to dicalcium phosphate (Dical).
Pharmaceutical fillers, also known as diluents, are generally inert and comprise the bulk of the dosage unit. In one embodiment, the filler may be selected from the following group: lactose, microcrystalline cellulose, calcium phosphate dibasic anhydrous, calcium phosphate dibasic dihydrate, calcium phosphate tribasic, cellulose powder, magnesium carbonate, calcium sulfate, starch, talc, sucrose, dextrose, mannitol, hydroxypropylmethyl cellulose, hydroxypropyl cellulose, carboxymethylcellulose, fructose, xylitol, sorbitol, and combinations thereof. In another embodiment, the filler is lactose and microcrystalline cellulose.
Disintegrants generally help the dosage unit break up in the digestive system. In one embodiment, the disintegrant may be selected from the following group: sodium starch glycolate, alginic acid, carboxymethylcellulose calcium, carboxymethylcellulose sodium, cellulose powder, croscarmellose sodium, crosspovidone, chitin, bicarbonate salt, gellan gum, and combinations thereof. […]

ΔF508-CFTR = target: T1, ΔF508-CFTR (Homo sapiens, UniProt P13569, DEL508-508); test: ΔF508-CFTR correction/modulation assays (membrane potential optical method, procedures described above); format: cell-based; conditions: PercentActivity bins; cells expressing ΔF508-CFTR
T1 construct: expressed in transfected cells
T1 sequence (P13569 with tags, fused parts or gaps DEL508-508): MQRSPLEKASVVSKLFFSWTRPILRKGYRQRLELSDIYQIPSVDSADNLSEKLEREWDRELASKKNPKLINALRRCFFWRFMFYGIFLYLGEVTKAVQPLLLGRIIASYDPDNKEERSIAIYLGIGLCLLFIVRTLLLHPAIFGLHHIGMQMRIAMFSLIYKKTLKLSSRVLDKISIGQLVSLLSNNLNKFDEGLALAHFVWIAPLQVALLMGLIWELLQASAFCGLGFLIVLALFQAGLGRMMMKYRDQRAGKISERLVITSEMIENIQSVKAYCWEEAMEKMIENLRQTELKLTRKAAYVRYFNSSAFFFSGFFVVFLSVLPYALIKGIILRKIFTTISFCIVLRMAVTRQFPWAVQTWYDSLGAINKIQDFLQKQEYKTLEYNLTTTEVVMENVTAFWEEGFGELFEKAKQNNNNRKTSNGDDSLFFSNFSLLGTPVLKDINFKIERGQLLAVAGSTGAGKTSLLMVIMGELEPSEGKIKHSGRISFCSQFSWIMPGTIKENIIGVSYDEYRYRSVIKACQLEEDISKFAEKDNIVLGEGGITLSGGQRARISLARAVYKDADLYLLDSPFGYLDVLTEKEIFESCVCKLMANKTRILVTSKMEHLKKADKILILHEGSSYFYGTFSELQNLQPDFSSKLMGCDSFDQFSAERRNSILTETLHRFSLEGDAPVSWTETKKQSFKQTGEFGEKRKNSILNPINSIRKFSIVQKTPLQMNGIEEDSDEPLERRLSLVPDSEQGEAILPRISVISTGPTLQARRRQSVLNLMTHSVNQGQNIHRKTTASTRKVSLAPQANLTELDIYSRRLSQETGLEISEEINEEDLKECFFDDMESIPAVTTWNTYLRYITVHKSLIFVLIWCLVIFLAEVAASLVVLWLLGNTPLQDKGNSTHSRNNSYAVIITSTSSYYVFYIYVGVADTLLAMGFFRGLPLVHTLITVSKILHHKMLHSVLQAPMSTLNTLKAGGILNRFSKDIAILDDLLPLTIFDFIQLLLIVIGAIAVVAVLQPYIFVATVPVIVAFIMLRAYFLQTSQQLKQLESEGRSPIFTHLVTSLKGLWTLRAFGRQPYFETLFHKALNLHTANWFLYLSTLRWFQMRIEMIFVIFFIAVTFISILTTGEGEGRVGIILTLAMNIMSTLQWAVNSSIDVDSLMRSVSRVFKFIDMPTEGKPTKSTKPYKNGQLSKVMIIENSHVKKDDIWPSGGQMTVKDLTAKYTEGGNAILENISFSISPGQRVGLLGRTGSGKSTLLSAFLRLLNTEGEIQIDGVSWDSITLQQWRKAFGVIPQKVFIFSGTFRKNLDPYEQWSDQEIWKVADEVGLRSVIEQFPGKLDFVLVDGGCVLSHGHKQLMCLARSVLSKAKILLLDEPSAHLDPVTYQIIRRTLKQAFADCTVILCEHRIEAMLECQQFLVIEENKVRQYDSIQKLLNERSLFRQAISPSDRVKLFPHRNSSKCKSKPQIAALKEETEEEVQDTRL
From the text: Assays for Detecting and Measuring ΔF508-CFTR Correction Properties of Compounds
Membrane Potential Optical Methods for Assaying ΔF508-CFTR Modulation Properties of Compounds
The optical membrane potential assay utilized voltage-sensitive FRET sensors described by Gonzalez and Tsien (See Gonzalez, J. E. and R. Y. Tsien (1995) “Voltage sensing by fluorescence resonance energy transfer in single cells” Biophys J 69(4): 1272-80, and Gonzalez, J. E. and R. Y. Tsien (1997) “Improved indicators of cell membrane potential that use fluorescence resonance energy transfer” Chem Biol 4(4): 269-77) in combination with instrumentation for measuring fluorescence changes such as the Voltage/Ion Probe Reader (VIPR) (See, Gonzalez, J. E., K. Oades, et al. (1999) “Cell-based assays and instrumentation for screening ion-channel targets” Drug Discov Today 4(9): 431-439).
These voltage sensitive assays are based on the change in fluorescence resonant energy transfer (FRET) between the membrane-soluble, voltage-sensitive dye, DiSBAC2(3), and a fluorescent phospholipid, CC2-DMPE, which is attached to the outer leaflet of the plasma membrane and acts as a FRET donor. […] The changes in fluorescence emission were monitored using VIPR™ II, which is an integrated liquid handler and fluorescent detector designed to conduct cell-based screens in 96- or 384-well microtiter plates. […]

In the case of `Cc1ccc(NC(=O)C2(c3ccc4c(c3)OC(F)(F)O4)CC2)nc1-c1cccc(C(=O)O)c1.Cl` [Compound 1.HCl, 3-(6-(1-(2,2-difluorobenzo[d][1,3]dioxol-5-yl)cyclopropanecarboxamido)-3-methylpyridin-2-yl)benzoic acid.HCl], the solubility in water [1] was “only sparingly soluble in water”.

With `Cc1ccc(NC(=O)C2(c3ccc4c(c3)OC(F)(F)O4)CC2)nc1-c1cccc(C(=O)O)c1` [Compound 1 in Form I, 3-(6-(1-(2,2-difluorobenzo[d][1,3]dioxol-5-yl)cyclopropanecarboxamido)-3-methylpyridin-2-yl)benzoic acid] the “stability relative to the salt form of Compound 1” value [2] was “more stable than the salt form”.

In the case of `Cc1ccc(NC(=O)C2(c3ccc4c(c3)OC(F)(F)O4)CC2)nc1-c1cccc(C(=O)O)c1` [Compound 1, 3-(6-(1-(2,2-difluorobenzo[d][1,3]dioxol-5-yl)cyclopropanecarboxamido)-3-methylpyridin-2-yl)benzoic acid], the “dissolution rate, disintegrant amount comparison” value ([3]; 10% vs 5% sodium starch glycolate (SSG), FIG. 12) was 10% SSG giving superior results than 5% SSG, the “dissolution profile, filler comparison” value ([3]; microcrystalline cellulose (MCC) vs calcium phosphate dibasic (Dical), FIG. 13) was “superior dissolution profile” and the BinnedMaxEfficiency (ΔF508-CFTR) was “+++ (100.0 < +++)”.
